From patent publication US20100021918A1, “METHOD FOR ASSAYING ACTION OF ANTITUMOR AGENT USING SPLICING DEFECTS AS INDEX” (Eisai R&D Management Co., Ltd., priority 2007, published 2010)

Tested on: peripheral blood mononuclear cells (PBMC)
Assay: qPCR of precursor gene (pre-mRNA) expression in PBMC, Table 2
Assay type: cell-based, human
Details: three hours
From the text: Since it is not easy to obtain a cancer tissue clinically, the measurement of the marker in hemocytes readily obtainable in peripheral blood would be more useful. It was then examined whether the marker gene obtained in cancer cells could change in peripheral blood mononuclear cells in a similar manner as observed in the cancer cells. Specifically peripheral blood was taken from three normal individuals (volunteers) and peripheral blood mononuclear cells were purified and treated with (8E,12E,14E)-7-((4-cycloheptylpiperazin-1-yl)carbonyl)oxy-3,6,16,21-tetrahydroxy-6,10,12,16,20-pentamethyl-18,19-epoxytricosa-8,12,14-trien-11-olide for three hours, followed by measurement of change in expression of the precursor gene (pre-mRNA) by qPCR.
Ficoll-Paque PLUS solution (Amersham, 17-1440-02) was slowly added to the blood taken (with heparin added) from healthy individuals to form a layer underneath the blood (15 mL of Ficoll-Paque PLUS solution was added to 25 mL of blood). After the mixture was centrifuged at 1500 rpm for 30 min, the upper part containing platelets was removed and then a layer containing mononuclear cells was transferred to another tube. The cells were suspended in PBS and centrifuged at 1500 rpm for 5 min, followed by removal of the supernatant. After these steps were repeated twice, the PBMC was suspended in RPMI1640 (containing 10% FBS, penicillin, and streptomycin) and the number of the cells was then counted.
PBMC was suspended in RPMI1640 medium (containing 10% FBS, penicillin, and streptomycin) to 5×10^6 cells/ml and 1 ml of the suspension was plated per well of a 24-well plate. Immediately, 111 μl of 10 times-concentrated (8E,12E,14E)-7-((4-cycloheptylpiperazin-1-yl)carbonyl)oxy-3,6,16,21-tetrahydroxy-6,10,12,16,20-pentamethyl-18,19-epoxytricosa-8,12,14-trien-11-olide was added to the well (six wells per each concentration tested). The cells were then cultured in an incubator with 5% carbon dioxide gas at 37° C. Three hours later, the supernatant was collected and centrifuged at 1500 rpm for five minutes. TRI reagent (SIGMA) (1 ml) was added to each well of the plate from which the supernatant was removed to harvest the cells, which was added to the centrifuged pellet to dissolve. RNA was purified in accordance with the protocol of TRI reagent. RNA was further purified using RNeasy (QIAGEN) and, in accordance with the protocol, DNaseI was added to the samples during the procedure. Absorbance at 260 nm was measured to quantify an amount of RNA.
RNA was prepared to 30 ng/μl and cDNA was synthesized using TaqMan Reverse Transcription Reagents (Applied Biosystems). For the expression level of pre-mRNA of ID1, amplification was carried out by using TaqMan Universal PCR Master Mix (Applied Biosystems) with TaqMan Gene Expression Assays (Hs00704053_s1, Applied Biosystems) as a probe. For the expression level of pre-mRNA of DNAJB1, BZW1, NUP54, RIOK3, CDKN1B, STK17B, ADRM1, EIF4A1, FOXK2, GNB2L1, HSPA9B, HSPH1, KLHL18 and VIL2, reagents were prepared in accordance with each protocol by using POWER SYBR GREEN PCR MASTER MIX (Applied Biosystems) and primers with the sequence below (Invitrogen), and the expression level was measured with ABI7900 (Applied Biosystems). 18S rRNA was measured by both the TaqMan and SYBR methods. The expression level of 18S r RNA was measured with Hs99999901_s1 (Applied Biosystems) as primers for TaqMan and with 18S primers included in TaqMan Ribosomal RNA control reagents (4308329: Applied Biosystems) as primers for SYBR. Measured values were corrected using the expression level of 18S rRNA as an internal control. The expression level of each gene was calculated with the expression level in the cells treated without (8E,12E,14E)-7-((4-cycloheptylpiperazin-1-yl)carbonyl)oxy-3,6,16,21-tetrahydroxy-6,10,12,16,20-pentamethyl-18,19-epoxytricosa-8,12,14-trien-11-olide as 1.

**Q.** What does the source list for `CCC(O)C(C)C1OC1CC(C)(O)/C=C/C=C(\C)C1OC(=O)CC(O)CCC(C)(O)C(OC(=O)N2CCN(C3CCCCCC3)CC2)/C=C/C1C` (stereo not drawn) [E7107, (8E,12E,14E)-7-((4-cycloheptylpiperazin-1-yl)carbonyl)oxy-3,6,16,21-tetrahydroxy-6,10,12,16,20-pentamethyl-18,19-epoxytricosa-8,12,14-trien-11-olide]?
**A.** expression level of pre-mRNA of ADRM1 (untreated cells as 1) (E7107 3 nM): 1.8; expression level of pre-mRNA of BZW1 (untreated cells as 1) (E7107 3 nM): 1.72; expression level of pre-mRNA of CDKN1B (untreated cells as 1) (E7107 3 nM): 1.27; expression level of pre-mRNA of DNAJB1 (untreated cells as 1) (E7107 3 nM): 2.25; expression level of pre-mRNA of EIF4A1 (untreated cells as 1) (E7107 3 nM): 2.17; expression level of pre-mRNA of FOXK2 (untreated cells as 1) (E7107 3 nM): 2.1; expression level of pre-mRNA of GNB2L1 (untreated cells as 1) (E7107 3 nM): 2.47; expression level of pre-mRNA of HSPA9 (untreated cells as 1) (E7107 3 nM): 1.87; expression level of pre-mRNA of HSPH1 (untreated cells as 1) (E7107 3 nM): 1.26; expression level of pre-mRNA of ID1 (untreated cells as 1) (E7107 3 nM): 3.31; expression level of pre-mRNA of KLHL18 (untreated cells as 1) (E7107 3 nM): 2.36; expression level of pre-mRNA of NUP54 (untreated cells as 1) (E7107 3 nM): 2.31; expression level of pre-mRNA of RIOK3 (untreated cells as 1) (E7107 3 nM): 2.59; expression level of pre-mRNA of STK17B (untreated cells as 1) (E7107 3 nM): 1.94; expression level of pre-mRNA of VIL2 (untreated cells as 1) (E7107 3 nM): 1.27; expression level of pre-mRNA of ADRM1 (untreated cells as 1) (E7107 10 nM): 2.68; expression level of pre-mRNA of BZW1 (untreated cells as 1) (E7107 10 nM): 2.34; expression level of pre-mRNA of CDKN1B (untreated cells as 1) (E7107 10 nM): 2.35; expression level of pre-mRNA of DNAJB1 (untreated cells as 1) (E7107 10 nM): 4.46; expression level of pre-mRNA of EIF4A1 (untreated cells as 1) (E7107 10 nM): 3.64; expression level of pre-mRNA of FOXK2 (untreated cells as 1) (E7107 10 nM): 2.68; expression level of pre-mRNA of GNB2L1 (untreated cells as 1) (E7107 10 nM): 2.74; expression level of pre-mRNA of HSPA9 (untreated cells as 1) (E7107 10 nM): 3.45; expression level of pre-mRNA of HSPH1 (untreated cells as 1) (E7107 10 nM): 1.88; expression level of pre-mRNA of ID1 (untreated cells as 1) (E7107 10 nM): 6; expression level of pre-mRNA of KLHL18 (untreated cells as 1) (E7107 10 nM): 2.97; expression level of pre-mRNA of NUP54 (untreated cells as 1) (E7107 10 nM): 2.46; expression level of pre-mRNA of RIOK3 (untreated cells as 1) (E7107 10 nM): 3.57; expression level of pre-mRNA of STK17B (untreated cells as 1) (E7107 10 nM): 3.44; expression level of pre-mRNA of VIL2 (untreated cells as 1) (E7107 10 nM): 2.87; expression level of pre-mRNA of ADRM1 (untreated cells as 1) (E7107 30 nM): 2.59; expression level of pre-mRNA of BZW1 (untreated cells as 1) (E7107 30 nM): 3.26; expression level of pre-mRNA of CDKN1B (untreated cells as 1) (E7107 30 nM): 4.9; expression level of pre-mRNA of DNAJB1 (untreated cells as 1) (E7107 30 nM): 7.42; expression level of pre-mRNA of EIF4A1 (untreated cells as 1) (E7107 30 nM): 4.36; expression level of pre-mRNA of FOXK2 (untreated cells as 1) (E7107 30 nM): 2.31; expression level of pre-mRNA of GNB2L1 (untreated cells as 1) (E7107 30 nM): 2.23; expression level of pre-mRNA of HSPA9 (untreated cells as 1) (E7107 30 nM): 2.33; expression level of pre-mRNA of HSPH1 (untreated cells as 1) (E7107 30 nM): 2.68; expression level of pre-mRNA of ID1 (untreated cells as 1) (E7107 30 nM): 10.57; expression level of pre-mRNA of KLHL18 (untreated cells as 1) (E7107 30 nM): 2.6; expression level of pre-mRNA of NUP54 (untreated cells as 1) (E7107 30 nM): 1.93; expression level of pre-mRNA of RIOK3 (untreated cells as 1) (E7107 30 nM): 2.89; expression level of pre-mRNA of STK17B (untreated cells as 1) (E7107 30 nM): 3.99; expression level of pre-mRNA of VIL2 (untreated cells as 1) (E7107 30 nM): 4.89
